Assay: xn = mol fraction of the nth substance listed
Details: 100 kPa, Liquid; for viscosity: Falling or rolling sphere viscometry; for speed of sound: Frequency=3 MHz, Single path-length method; for mass density: Vibrating tube method

CC#N [acetonitrile] + CN(C)C=O
Details	mass density [kg/m3]	speed of sound [m/s]	viscosity [mPa·s]
298.15 K, x2 = 0	776.714	1278.5	0.34
298.15 K, x2 = 0.0989	802.565	1302.5	0.4
298.15 K, x2 = 0.1916	826.376	1322	0.44
298.15 K, x2 = 0.2925	844.614	1339.6	0.48
298.15 K, x2 = 0.3932	865.725	1361.6	0.54
298.15 K, x2 = 0.5029	880.889	1377.5	0.61
298.15 K, x2 = 0.6002	895.421	1395.9	0.65
298.15 K, x2 = 0.6931	907.546	1411.4	0.69
298.15 K, x2 = 0.7926	922.026	1429.2	0.75
298.15 K, x2 = 0.8996	932.676	1442.8	0.79
303.15 K, x2 = 0	771.289	1258.4	0.32
303.15 K, x2 = 0.0989	797.299	1282.7	0.39
303.15 K, x2 = 0.1916	821.229	1302.3	0.42
303.15 K, x2 = 0.2925	839.435	1320.1	0.46
303.15 K, x2 = 0.3932	860.639	1342.2	0.51
303.15 K, x2 = 0.5029	875.938	1358.1	0.57
303.15 K, x2 = 0.6002	890.518	1376.6	0.61
303.15 K, x2 = 0.6931	902.756	1392	0.65
303.15 K, x2 = 0.7926	917.22	1409.9	0.7
303.15 K, x2 = 0.8996	927.901	1423.3	0.75
308.15 K, x2 = 0	765.833	1238.2	0.31
308.15 K, x2 = 0.0989	792.024	1262.9	0.37
308.15 K, x2 = 0.1916	816.008	1282.5	0.4
308.15 K, x2 = 0.2925	834.219	1300.5	0.44
308.15 K, x2 = 0.3932	855.56	1322.6	0.49
308.15 K, x2 = 0.5029	870.924	1338.6	0.54
308.15 K, x2 = 0.6002	885.607	1357.2	0.58
308.15 K, x2 = 0.6931	897.887	1372.6	0.61
308.15 K, x2 = 0.7926	912.402	1390.5	0.66
308.15 K, x2 = 0.8996	923.153	1404	0.71
313.15 K, x2 = 0	760.339	1218	0.3
313.15 K, x2 = 0.0989	786.729	1243	0.35
313.15 K, x2 = 0.1916	810.757	1262.8	0.39
313.15 K, x2 = 0.2925	829.087	1280.9	0.42
313.15 K, x2 = 0.3932	850.487	1303.2	0.46
313.15 K, x2 = 0.5029	865.854	1319.2	0.51
313.15 K, x2 = 0.6002	880.698	1337.9	0.55
313.15 K, x2 = 0.6931	893.049	1353.3	0.58
313.15 K, x2 = 0.7926	907.663	1371.3	0.63
313.15 K, x2 = 0.8996	918.366	1384.7	0.69
318.15 K, x2 = 0	754.815	1197.9	0.29
318.15 K, x2 = 0.0989	781.363	1223.3	0.33
318.15 K, x2 = 0.1916	805.527	1243.1	0.37
318.15 K, x2 = 0.2925	823.852	1261.3	0.4
318.15 K, x2 = 0.3932	845.354	1283.7	0.44
318.15 K, x2 = 0.5029	860.76	1299.9	0.49
318.15 K, x2 = 0.6002	875.703	1318.6	0.52
318.15 K, x2 = 0.6931	888.143	1334	0.55
318.15 K, x2 = 0.7926	902.79	1352.1	0.59
318.15 K, x2 = 0.8996	913.57	1365.5	0.63
323.15 K, x2 = 0	749.253	1177.8	0.28
323.15 K, x2 = 0.0989	776.028	1203.5	0.32
323.15 K, x2 = 0.1916	800.222	1223.4	0.35
323.15 K, x2 = 0.2925	818.614	1241.9	0.38
323.15 K, x2 = 0.3932	840.213	1264.4	0.42
323.15 K, x2 = 0.5029	855.738	1280.6	0.46
323.15 K, x2 = 0.6002	870.738	1299.4	0.5
323.15 K, x2 = 0.6931	883.209	1314.8	0.53
323.15 K, x2 = 0.7926	897.991	1332.9	0.56
323.15 K, x2 = 0.8996	908.741	1346.3	0.6

Reference: the NIST ThermoML archive (doi:10.1021/acs.jced.8b00176)
